Data set [1] has as its target human gonadotropin-releasing hormone receptor (Homo sapiens (Human), UniProt P30968). As to the kind of experiment: FLIPR calcium flow assay of inhibitory activity on gonadotropin-releasing hormone receptor in GnRH/HEK293 cells. Type of data set: cell-based. To be noted: Ca2+ flow, agonist Leuprolide acetate, read-out: IC50 on inhibiting the activity of human gonadotropin-releasing hormone receptor. The method, then:
Objective of assay: to detect the inhibitory activity of assay compounds on gonadotropin-releasing hormone receptor at the cellular level using FLIPR detection technology.
GnRH/HEK293 (human embryonic kidney cell 293) cultured cells in the logarithmic growth phase were washed with DPBS (Dulbecco's phosphate buffered saline) buffer, and an appropriate amount of 0.05% EDTA (ethylenediaminetetraacetic acid)-trypsin was added. The cells were placed in a carbon dioxide incubator at 37° C. for digestion for 1-2 minutes, and then removed from the incubator. A medium was added to the cells to terminate the digestion. Cells were dispersed by repeated pipetting and harvested by centrifugation. […]
On the next day, 20 μL, of 2×Fluo-4Direct™ buffer was added to each well, and the plate was incubated in a 5% CO2, 37° C. incubator for 50 minutes. […] The fluorescence signal was read. Then 10 μL of the reference compound as an agonist was added, and the fluorescent signal was read. EC50 was calculated, and the agonist with a concentration of 6×EC50 was prepared.
2 mM assay compounds and an appropriate concentration of reference compound were serially diluted 4-fold to 10 concentrations in ECHO, and 900 nL of that was transferred to a compound plate. […] The fluorescent signal was read. Then 10 μL of agonist with a concentration of 6×EC50 was added to the cell plate and the fluorescent signal was read. […]

The test system of data set [2] is endometriotic lesion in mice. Nature of the data set: In vivo efficacy evaluation in a mouse model of endometriosis. The text has this:
Objective of assay: To evaluate the efficacy of the compound of the present disclosure in a mouse model of endometriosis.
Animal estrous cycle detection in 8-week-old C57BL6/J female mice: Through vaginal smear observation, mice that met the specific estrous cycle on the day of the assay were selected according to the actual smear results because the entire estrous cycle was about 4 days. Modeling: The uterine horns of donor mice in an estrous cycle were excised, and opened longitudinally. The excised biopsies were cut to a size of 2×2 mm. Recipient mice were anesthetized with isoflurane gas, and a 1 cm incision was made along the midline to expose the abdominal cavity. Endometriotic mice: four uterine fragments of donors were sutured to the peritoneal wall of mice in an estrous cycle; sham-operated mice: abdominal fat fragments of similar size were sutured. The grafted tissue as well as the abdominal muscle and skin were sutured using 8-0 black silk thread. Sham group (sham-operation group): the abdominal cavity of each mouse in the Sham group was opened to transplant fat fragments, and the rest of the steps were the same.
After 4 weeks of modelmg, a second laparotomy was performed, and the ectopic lesion volume (V1) was measured using a vernier caliper and calculated to determine the success of the modeling. Twelve mice with relatively uniform V1 were selected and divided into 2 groups with 6 nice in each group: Vehicle (vehicle control group) and drug group.
Sham group (sham-operation group, 6 animals): normal feeding; Vehicle group (vehicle control group, 6 animals); vehicle was intragastrically administered once a day for 8 consecutive weeks. […]
After 8 weeks of administration, samples were obtained from the mice: the ectopic lesion volume (V2) was measured using a vernier caliper and calculated. The inhibition rate was calculated using a calculation formula of: ectopic lesion volume V=π/6×length×width×height, wherein length represents the length of an ectopic lesion, width represents the width of an ectopic lesion, and height represents the height of an ectopic lesion;

The nature of data set [3]: Pharmacokinetic evaluation in mice (plasma). Type of data set: in vivo. To be noted: mouse, male CD-1 mice. The method, then: Objective of assay: To study the in vivo pharmacokinetic properties of the compound of the present disclosure in mice.
Each assay compound was mixed with DMAC respectively, and vortexed for 2 minutes. The solution of the assay compound in DMAC was mixed and vortexed for 2 minutes to prepare a clear solution of 10 mg/mL. 0.0600 mL of 10 mg/mL solution was added to 0.300 mL of Solutol, and the mixture was vortexed for 2 minutes. Then 2.400 mL of normal saline was added, and the mixture was vortexed for 2 minutes to obtain a clear solution of 0.2 mg/mL, which was used for administration in PO group, 0.500 mL of the solution for administration in PO group was vortexed for 2 minutes, and 0.0500 mL of DMAC was added. The mixture was vortexed for 2 minutes, and then 0.0500 mL of solutol was added. The mixture was vortexed for 2 minutes, and finally 0.400 mL of normal saline was added. The mixture was vortexed for two minutes to give a clear solution of 0.1 mg/mL, which was filtered through a microporous membrane to give a solution for administration in injection (IV) group.
Four male CD-1 mice were divided into two groups. The animals in the first group were administered intravenously once at a dose of 0.5 mg/kg, wherein the vehicle was 10% DMAC/10% Solutol/80% normal saline, and the administration volume was 5 mL/kg. The animals in the second group were administered orally 2 mg/kg of the assay compound by oral gavage, wherein the oral vehicle was 10% DMAC/10% Solutol/80% normal saline, and the oral volume was 10 mL/kg. Whole blood was collected at 0.033 (IV injection only), 0.083, 0.25, 0.5, 1, 2, 4 and 12 hours post-dose. The whole blood was centrifuged at 3200 g at 2-8° C. for 10 min to obtain plasma. The concentration of the assay compound in plasma was determined by ILC/MS/MS method, and the pharmacokinetic parameters were calculated by Phoenix WinNonlin software.
The parameters have the following meanings: IV: intravenous injection; PO: oral administration; C0: initial plasma drug concentration; Cmax: maximum drug concentration in systemic circulation; Tmax: time required to reach Cmax; T1/2: half-life; Vdss: apparent volume of distribution; Cl: clearance rate; AUC0-last: area under the drug-time curve.

Sequence of human gonadotropin-releasing hormone receptor (P30968 whole entry): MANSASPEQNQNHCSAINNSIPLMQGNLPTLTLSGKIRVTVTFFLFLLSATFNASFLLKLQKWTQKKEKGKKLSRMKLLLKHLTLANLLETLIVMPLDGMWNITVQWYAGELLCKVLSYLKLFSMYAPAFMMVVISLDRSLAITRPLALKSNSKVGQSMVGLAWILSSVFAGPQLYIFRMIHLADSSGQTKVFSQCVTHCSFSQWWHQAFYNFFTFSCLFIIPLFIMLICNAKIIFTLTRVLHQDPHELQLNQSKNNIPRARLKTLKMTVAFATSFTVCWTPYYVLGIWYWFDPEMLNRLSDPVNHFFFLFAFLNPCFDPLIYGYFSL

`O=C(O)c1scc2[nH]c(=O)n(-c3cc4c(cc3F)OCCCOc3ccc(F)c(F)c3CO4)c(=O)c12` [Compound 1]: the IC50 – broadly, the concentration at which inhibition is half-maximal – in data set [1] was 3.2 nM. For the same molecule, the “Volume of endometriotic lesion in mice V1” value in data set [2] (Mean ± SD, n = 6, 4 weeks after modeling, before administration (baseline)) came to 9.89 ± 1.51 mm^3. Moreover, the “Volume of endometriotic lesion in mice V2” value in data set [2] (Mean ± SD, n = 6, after 8 weeks of 100 mpk intragastric once daily) is 6.78 ± 4.46 mm^3. Besides, in data set [2] (ectopic lesion volume, 100 mpk intragastric once daily for 8 weeks), the Inhibition rate worked out at 107.5%. In data set [3] (IV 0.5 mg/kg), the AUC(0-t) (commonly exposure summed from dosing to a finite time, without extrapolation to infinity) is 48.3 µM·h; the C0 turned out to be 13.5 µM; the clearance (in general, the volume of plasma or blood freed of the substance per unit of time) is 0.332 mL/min/kg; the half-life – broadly, the time in which the quantity being followed falls by half – is 5.66 h. Also, in data set [3] (IV 0.5 mg/kg, read-out: Vdss), the Vd came out at 0.159 L/kg. In data set [3] (PO 2 mg/kg vs IV 0.5 mg/kg), the bioavailability (commonly dose-corrected exposure relative to a reference, in per cent) turned out to be 95.3%. Also, in data set [3] (PO 2 mg/kg), the AUC(0-t) came to 143 µM·h; the concentration peaked (Cmax) at 25.8 µM; the Tmax (as a rule, the time from dosing to the highest level) turned out to be 0.5 h; the half-life is 5.03 h.
